Source: patent publication US8440724B2, “Inhibiting neurotransmitter reuptake” (Mayo Foundation for Medical Education and Research, priority 2008, dated 2013)
Entries after “also recorded” stand apart in the source; their conditions may differ. Where two headings read alike, the source gives them in different places.

Assays:
[1] = molecular target: T1, human dopamine transporter (hDAT) (Homo sapiens, UniProt Q01959); test: Radioligand binding to cloned hDAT, [3H]WIN35428, HEK-293 cell membranes; details: for Binding at hDAT compared to PRC200-SS: in words
T1 construct: expressed in transfected cells; host or cells: HEK-293, stably transfected
T1 sequence (Q01959 whole entry): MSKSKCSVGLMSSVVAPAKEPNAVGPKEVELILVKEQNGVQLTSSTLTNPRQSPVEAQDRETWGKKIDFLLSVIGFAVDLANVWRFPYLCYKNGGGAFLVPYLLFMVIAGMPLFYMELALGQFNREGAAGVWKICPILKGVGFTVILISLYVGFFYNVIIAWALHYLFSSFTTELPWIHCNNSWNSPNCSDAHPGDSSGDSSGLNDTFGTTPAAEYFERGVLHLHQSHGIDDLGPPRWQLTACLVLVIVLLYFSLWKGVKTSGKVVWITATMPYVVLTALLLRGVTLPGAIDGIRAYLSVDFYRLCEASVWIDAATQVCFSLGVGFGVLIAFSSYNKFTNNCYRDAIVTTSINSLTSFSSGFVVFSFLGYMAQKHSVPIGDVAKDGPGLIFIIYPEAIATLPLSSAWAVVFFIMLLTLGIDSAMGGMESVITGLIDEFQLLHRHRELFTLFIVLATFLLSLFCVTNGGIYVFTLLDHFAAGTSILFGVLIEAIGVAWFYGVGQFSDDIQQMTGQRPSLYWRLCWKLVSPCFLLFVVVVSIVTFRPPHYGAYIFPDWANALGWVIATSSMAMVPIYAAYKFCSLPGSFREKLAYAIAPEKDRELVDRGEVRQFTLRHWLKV
Description: (§1) HEK-293 cells expressing the recombinant hSERT or hDAT were incubated with Dulbecco's modified Eagles medium (MEM) supplemented with 0.1 mM nonessential amino acid solution for MEM, 5% v/v fetal bovine serum and 1 U/mL penicillin/streptomycin solution. Cells expressing the hNET transporter were incubated with Dulbecco's modified Eagles medium supplemented with 10% v/v fetal bovine serum and 100 U/mL penicillin/streptomycin solution and 2 mM L-glutamine. The cells were grown until 70-80% confluent on 175 cm^2 flasks in a humidified 10% CO2/90% air environment at 37° C., with the selecting antibiotic Geneticin sulfate at 250 μg/mL. The cells were incubated in 10% CO2, 90% air at 37° C. and 100% humidity.
(§2) Cell membranes containing hSERT, hNET, or hDAT were prepared from the cell lines to assay ligand binding for each of the transporters. […] The washed cells were incubated for 5 minutes at 37° C. in 10 mL solution 1 containing 100 mM ethylene glycol-bis N,N,N′,N′-tetraacetic acid (EGTA). The cells were then scraped from the flask surface with a rubber spatula, placed into a centrifuge tube, and collected by centrifugation at 1000×g for 5 minutes at 4° C. The resulting supernatant was discarded, and the cell pellet was resuspended in 0.5 to1.0 mL of the appropriate binding buffer (described below). The resuspended cell pellet was homogenized using a Polytron for 10 seconds at setting 6. The resulting homogenate was centrifuged at about 36,000×g for 10 minutes at 4° C. The supernatant was discarded, and the pellet was resuspended in the same volume of the appropriate binding buffer and centrifuged again. The supernatant was discarded, and the final pellet containing cell membranes was resuspended in the appropriate binding buffer and stored at −80° C. until use.
To assess binding to the cloned hDAT, cells expressing hDAT were homogenized in 50 mM Tris-HCl with 120 mM NaCl (pH 7.4). The binding reaction contained 15 μg cell membrane protein, 1 nM [^3H]WIN35428 (WIN35428, [N-methyl-^3H], specific activity 85.9 Ci/mmol; PerkinElmer, Boston, Mass.), and varying concentrations of either unlabeled WIN35428 or the test compound. A reaction to determine non-specific binding contained 15 μg cell membrane protein, 1 nM [^3H]WIN35428, and 10 μM final concentration of unlabeled WIN35428. The reactions were incubated at 22° C. for 1 hour. Following incubation, the reactions were terminated by rapid filtration through separate GF/B filter strips pretreated with 0.2% polyethylenimine in a 48-well Brandel cell harvester. The cell membrane-containing filter strips were then rinsed five times with ice-cold 0.9% NaCl. After rinsing, individual filters were cut from the strip and placed in a scintillation vial containing 6.5 mL of Redi-Safe (Beckman-Coulter, Fullerton, Calif.).
(§3) The program was modified to calculate the Hill coefficient (nH). Data are presented as geometric mean±S.E.M. of at least three independent experiments. One-component models and two-component models were compared using the root mean square error of each fit and the F test.

hSERT, hNET, hDAT = test: Human transporter binding: rank order and range of potency over the three transporters; details: for Potency (rank-order of potency of binding; S = hSERT, N = hNET, D = hDAT): from KD values; for Potency Range (difference between most potent and least potent binding): ratio of KD over hSERT, hNET, hDAT
Source text: as §3

[2] = molecular target: T2, human serotonin transporter (hSERT) (Homo sapiens, UniProt P31645); test: Radioligand binding to cloned hSERT, [3H]citalopram, HEK-293 cell membranes; details: for Kd: Geometric Mean ± SEM, HCl salts, read-out: Equilibrium Dissociation Constant (KD) for Transporter Binding, hSERT (S); for Binding at hSERT compared to PRC200-SS: in words
T2 construct: expressed in transfected cells; host or cells: HEK-293, stably transfected
T2 sequence (P31645 whole entry): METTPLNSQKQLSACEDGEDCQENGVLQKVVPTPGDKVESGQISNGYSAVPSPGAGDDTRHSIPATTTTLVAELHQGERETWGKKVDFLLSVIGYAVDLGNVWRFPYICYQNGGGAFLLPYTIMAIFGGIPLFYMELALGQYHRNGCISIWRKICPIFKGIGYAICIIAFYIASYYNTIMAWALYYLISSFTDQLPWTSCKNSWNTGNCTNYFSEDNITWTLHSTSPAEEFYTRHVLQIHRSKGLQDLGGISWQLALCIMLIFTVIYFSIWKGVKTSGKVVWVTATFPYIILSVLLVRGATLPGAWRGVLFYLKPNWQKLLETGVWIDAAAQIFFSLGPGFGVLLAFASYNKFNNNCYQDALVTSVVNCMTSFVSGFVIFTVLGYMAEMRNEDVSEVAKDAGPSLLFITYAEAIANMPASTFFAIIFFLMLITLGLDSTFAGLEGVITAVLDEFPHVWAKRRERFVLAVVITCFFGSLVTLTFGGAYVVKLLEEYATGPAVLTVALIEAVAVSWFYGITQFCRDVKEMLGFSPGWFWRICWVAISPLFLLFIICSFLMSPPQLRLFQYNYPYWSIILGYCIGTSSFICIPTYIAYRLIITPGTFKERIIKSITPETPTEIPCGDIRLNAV
Description: as §1, §2
Radioligand binding assays for the indicated transporters were performed as follows. To assess binding to the cloned hSERT, cells expressing hSERT were homogenized in 50 mM Tris-HCl with 120 mM NaCl and 5 mM KCl (pH 7.4). The binding reaction consisted of 10 μg cell membrane protein, […] [^3H]citalopram (citalopram, [N-methyl-^3H], specific activity 79.0 Ci/mmol; PerkinElmer, Boston, Mass.), and varying concentrations of either unlabeled citalopram or the test compound. A reaction to determine non-specific binding consisted of 10 μg cell membrane protein, 0.5 nM [^3H]citalopram, and 1 μM final concentration of unlabeled citalopram. The reactions were incubated at 22° C. for 60 minutes. Following incubation, the reactions were terminated by rapid filtration through separate GF/B filter strips pretreated with 0.2% polyethylenimine in a 48-well Brandel cell harvester. The cell membrane-containing filter strips were then rinsed five times with ice-cold 0.9% NaCl. After rinsing, individual filters were cut from the strip and placed in a scintillation vial containing 6.5 mL of Redi-Safe (Beckman-Coulter, Fullerton, Calif.).
as §3

[3] = molecular target: T3, human norepinephrine transporter (hNET) (Homo sapiens, UniProt P23975); test: Radioligand binding to cloned hNET, [3H]nisoxetine, HEK-293 cell membranes; details: for Kd: Geometric Mean ± SEM, HCl salts, read-out: Equilibrium Dissociation Constant (KD) for Transporter Binding, hNET (N)
T3 construct: expressed in transfected cells; host or cells: HEK-293, stably transfected
T3 sequence (P23975 whole entry): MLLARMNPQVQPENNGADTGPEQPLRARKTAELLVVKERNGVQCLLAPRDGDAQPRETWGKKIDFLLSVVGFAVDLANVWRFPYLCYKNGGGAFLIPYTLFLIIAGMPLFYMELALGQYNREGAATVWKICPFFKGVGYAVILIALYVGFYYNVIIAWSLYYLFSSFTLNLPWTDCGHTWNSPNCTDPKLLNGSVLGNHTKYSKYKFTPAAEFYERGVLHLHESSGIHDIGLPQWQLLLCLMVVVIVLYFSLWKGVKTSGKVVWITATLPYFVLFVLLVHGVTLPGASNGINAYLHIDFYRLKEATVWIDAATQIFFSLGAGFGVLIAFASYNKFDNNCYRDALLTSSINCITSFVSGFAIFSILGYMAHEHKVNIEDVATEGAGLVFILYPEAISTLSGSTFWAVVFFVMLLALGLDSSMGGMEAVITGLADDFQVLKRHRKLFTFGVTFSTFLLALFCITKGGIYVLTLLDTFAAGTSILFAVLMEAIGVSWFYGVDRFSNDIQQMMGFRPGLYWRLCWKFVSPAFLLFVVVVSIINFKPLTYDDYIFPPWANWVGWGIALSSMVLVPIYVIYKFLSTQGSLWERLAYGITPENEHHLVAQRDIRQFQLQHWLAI
Description: as §1, §2
To assess binding to the cloned hNET, cells expressing hNET were homogenized in 50 mM Tris-HCl with 300 mM NaCl and 5 mM KCl (pH 7.4). The binding reaction consisted of 5 μg cell membrane protein, 0.5 nM [^3H]nisoxetine (nisoxetine HCl, [N-methyl-^3H], specific activity 82.0 Ci/mmol; Amersham, Arlington Hts., Ill.), and varying concentrations of either unlabeled nisoxetine or the test compound. A reaction to determine non-specific binding consisted of 5 μg cell membrane protein, 0.5 nM [^3H]nisoxetine, and 1 μM final concentration of unlabeled nisoxetine. The reactions were incubated at 22° C. for 60 minutes. Following incubation, the reactions were terminated by rapid filtration through separate GF/B filter strips pretreated with 0.2% polyethylenimine in a 48-well Brandel cell harvester. The cell membrane-containing filter strips were then rinsed five times with ice-cold 0.9% NaCl. After rinsing, individual filters were cut from the strip and placed in a scintillation vial containing 6.5 mL of Redi-Safe (Beckman-Coulter, Fullerton, Calif.).
as §3

[4] = Geometric Mean ± SEM, HCl salts, read-out: Equilibrium Dissociation Constant (KD) for Transporter Binding, hDAT (D)

SMILES	Kd [1, 4]	Potency (rank-order of potency of binding; S = hSERT, N = hNET, D = hDAT) (hSERT, hNET, hDAT)	Potency Range (difference between most potent and least potent binding) (hSERT, hNET, hDAT)	Kd [2]	Kd [3]	Kd [1]	Binding at hSERT compared to PRC200-SS [2]	Binding at hDAT compared to PRC200-SS [1]	Potency (rank-order of potency of binding; S = hSERT, N = hNET, D = hDAT) (hSERT, hNET, hDAT; listed as MCJ001-NH2-cyc-SS)	Binding at hSERT compared to PRC200-SS ([2]; listed as MCJ001-NH2-cyc-SS)	Binding at hNET compared to PRC200-SS ([3]; in words)
CNC[C@@H](c1ccc2ccccc2c1)[C@H](Cl)c1ccccc1 [MCJ001-Cl-SR, (2R,3S)-3-chloro-N-methyl-2-(naphthalen-2-yl)-3-phenylpropan-1-amine]	350 ± 20 nM	S > D > N	13 fold	55 ± 5 nM	700 ± 50 nM						
CCN(CC)C(=O)C1(c2ccccc2)CC1CN (stereo not shown) [Milnacipran, reference compound]		S > N > D									
CCOc1ccccc1OC(c1ccccc1)C1CNCCO1 (stereo not shown) [Reboxetine, reference compound]		N > S > D									
c1ccc([C@H]2OCNC[C@@H]2c2ccc3ccccc3c2)cc1 [MCJ000-OH-Cyc-SS, (5S,6S)-5-(naphthalen-2-yl)-6-phenyl-1,3-oxazinane]	330 ± 50 nM	S > D > N	41 fold	8 ± 1 nM	99 ± 6 nM						
CNC[C@@H](c1ccc2ccccc2c1)[C@@H](N)c1ccccc1 (racemic) [MCJ001-NH2-(±)-RR, (2R,3R)-N1-methyl-2-(naphthalen-2-yl)-3-phenylpropane-1,3-diamine]		S > N > D	22 fold	1.27 ± 0.06 nM	2.5 ± 0.1 nM	28 ± 4 nM	greater binding at hSERT				
CNCC[C@H](Oc1cccc2ccccc12)c1cccs1 [Duloxetine, reference compound]		S > N > D									
CN1CN[C@H](c2ccccc2)[C@@H](c2ccc3ccccc3c2)C1 [MCJ001-NH2-Cyc-SS, (4S,5S)-1-methyl-5-(naphthalen-2-yl)-4-phenylhexahydropyrimidine]		S>D>N	50 fold	0.26 ± 0.02 nM	13 ± 1 nM	7.7 ± 0.6 nM	markedly enhanced potency at binding to hSERT	several fold enhanced potency at binding to hDAT; also recorded: several fold more potent binding at hDAT	S > D > N	greater binding at hSERT	lower potency of binding to hNET
CNC[C@H](c1ccc2ccccc2c1)[C@H](OCCCCO[C@H](c1ccccc1)[C@H](CNC)c1ccc2ccccc2c1)c1ccccc1 [MCJ001-Dimer4-SS, (2S,2′S,3S,3′S)-3,3′-(butane-1,4-diylbis(oxy))bis(N-methyl-2-(naphthalen-2-yl)-3-phenylpropan-1-amine)]	240 ± 1 nM	S > D > N	2.8 fold	94 ± 10 nM	259 ± 5 nM						
C[N+]1(C)CN[C@H](c2ccccc2)[C@@H](c2ccc3ccccc3c2)C1.[Cl-] [MCJ002-NH2-Cyc-SS, (4S,5S)-1,1-dimethyl-5-(naphthalen-2-yl)-4-phenylhexahydropyrimidin-1-ium chloride]		S > D > N	53 fold	1.9 ± 0.2 nM	100 ± 10 nM	18 ± 2 nM	greater binding at hSERT	Enhanced binding to hDAT			
CNC[C@@H](c1ccc2ccccc2c1)[C@@H](Cl)c1ccccc1 [MCJ001-Cl-RR, (2R,3R)-3-chloro-N-methyl-2-(naphthalen-2-yl)-3-phenylpropan-1-amine]	290 ± 20 nM	S > N > D	8.3 fold	35 ± 2 nM	234 ± 5 nM						
CNC[C@@H](c1ccc2ccccc2c1)[C@@H](F)c1ccccc1 [MCJ001-F-RR, (2R,3R)-3-fluoro-N-methyl-2-(naphthalen-2-yl)-3-phenylpropan-1-amine]		S > D > N	11 fold	16 ± 1 nM	170 ± 10 nM	150 ± 9 nM					
CN1CO[C@@H](c2ccccc2)[C@H](c2ccc3ccccc3c2)C1 [MCJ001-OH-Cyc-RR, (5R,6R)-3-methyl-5-(naphthalen-2-yl)-6-phenyl-1,3-oxazinane]	180 ± 20 nM	D > S > N	2.6 fold	240 ± 20 nM	460 ± 50 nM						
CNC[C@H](c1ccc2ccccc2c1)[C@@H](N)c1ccccc1 [MCJ001-NH2-RS, (2S,3R)-N1-methyl-2-(naphthalen-2-yl)-3-phenylpropane-1,3-diamine]	380 ± 30 nM	N > S > D	4.9 fold	100 ± 7 nM	78 ± 4 nM						
